Measurements as given in patent publication US11352317B2, “Rosin-based small molecular weight hydrogelator and its application” (Jiangnan University, priority 2019, dated 2022).

Key:
[1] = Steady-state shear of comparative aqueous solutions; assay type: physicochemical; details: 5 mmol·L^−1 aqueous solution; for viscosity of the system (steady-state shear): high or low shear rates
[2] = Gel emulsion stability test; assay type: physicochemical; details: 20° C.; for Stability: gel emulsion, 0.22% stabilizer
Protocol: To the 0.22% solution of 6-dehydroabietylamide amine oxide, different volumes of oil were added (the volume ratios of 6-dehydroabietylamide amine oxide solution to oil were 0.2:9.8, 3:7, 5:5,7:3, and 9.9: 0.1, and total volume was 4 mL), and then the mixture was emulsified at 11,000 r/min using an ultraturrax homogenizer (IKA T18 basic, S18N-10G head) for 2 min. The emulsion was allowed to stand and cool at a low temperature to form a white gel emulsion.
The prepared gel emulsion was placed in a 20° C. incubator, and the stability of the gel emulsion was observed. When the concentration of 6-dehydroabietylamide-N,N-dimethyl-hexylamine oxide as stabilizer was 0.22% of the mass of the continuous phase, and the volume fraction of the disperse phase was in the range of 1%-98%, a gel emulsion was formed.

[3] = Gel sustained-release performance test (in vitro release of embedded Rhodamine B); assay type: physicochemical; details: embedded in 20 mmol·L^−1 hydrogel, 37° C.
Protocol: Rhodamine B was embedded in a hydrogel formed by 20 mmol·L^−1 6-dehydroabietylamide-N,N-dimethyl-hexylamine oxide and in vitro release experiments were carried out in a constant temperature oscillating water bath at 37° C. The absorbance of the release solution was measured by an ultraviolet-visible spectrophotometer to obtain an in vitro release curve. […] It can be seen that the hydrogel formed by 6-dehydroabietylamide-N,N-dimethyl-hexylamine oxide had good sustained-release ability and can be used in the fields of drug sustained release and so on.

[4] = Preparation of O/W type gel emulsion at different oil-water ratios; assay type: physicochemical; details: 20 mmol·L^−1 stabilizer, oil phase volume fraction 10% to 90%
Protocol: An amount of 6-dehydroabietylamide amine oxide was added to a 22 mm (d)×52 mm (h) glass vial with a total volume of 10 mL. After adding a certain amount of deionized water, the vial was heated in a water bath at 50° C. until the 6-dehydroabietylamide amine oxide was completely dissolved to obtain a transparent solution. Different volumes of oil were added to the 6-dehydroabietylamide amine oxide solution (the volume ratios of 6-dehydroabietylamide amine oxide solution to oil were 1:9, 2:8, 3:7, 4:6, 5:5, 6:4, 7:3, 8:2, and 9:1, and total volume was 4 mL), then the mixture was emulsified at 11,000 r/min using an ultraturrax homogenizer (IKA T18 basic, S18N-10G head) for 2 min. The emulsion was allowed to stand and cool at a low temperature to form a white gel emulsion.

[5] = Determination of surface tension (ring method); assay type: physicochemical; details: aqueous, 25° C.
Protocol: Determination of surface tension. A series of aqueous surfactant solutions having different concentrations were prepared, and the surface tension was measured by a ring method at 25° C., and the surface tension curve was plotted.

[6] = Cryo-TEM microstructure of the gel system; assay type: physicochemical; details: 5 mmol·L^−1 hydrogel
Protocol: Sample preparation was carried out using an environment controlled low temperature sample preparation device Cryoplunge TM3, and the ambient temperature was fixed at 25° C. The relative humidity in the device cavity was adjusted to over 90%, about 5 μL of the sample was pipetted onto the surface of the micro-grid, and the droplets on the surface of the micro-gate were absorbed by patting the sample with the filter paper on both sides of Cp3 to obtain a very thin liquid film. The sample was then quickly inserted into liquid ethane cooled liquid nitrogen. The frozen sample was transferred to a sample rod cooled with liquid nitrogen and transferred to a transmission electron microscope for observation at an operating voltage of 120 kV. It can be seen from the in situ frozen transmission electron micrograph of a hydrogel sample formed by 5 mmol·L^−1 6-dehydroabietylamide-N,N-dimethyl-hexylamine oxide in FIG. 8 that the microscopic morphology of the hydrogel was a relatively rigid nanofiber having a cross-sectional diameter of about 10 nm and a length of more than 2 μm.
The reason was that the 6-dehydroabietylamide-N,N-dimethyl-hexylamine oxide molecule formed a left-handed helical fiber structure having a diameter of about 10 nm by molecular self-assembly. […]

[7] = Circular dichroism spectrum of gel; assay type: physicochemical; details: 5 mmol·L^−1 gel, 300-180 nm
Protocol: The measurement was carried out on a circular dichroism spectrometer model MOS-450. The signal was recorded at intervals of 0.1 nm within the wavelength range of 300-180 nm. Gel samples were measured using a 0.1 mm quartz sample cell.

[8] = Determination of gel behavior (vial inversion); assay type: physicochemical
Protocol: To 1 mL of deionized water, 6-dehydroabietylamide-N,N-dimethyl-hexylamine oxide was added (concentrations were 4 mmol·L^−1, 10 mmol·L^−1, 15 mmol·L^−1, 20 mmol·L^−1, and 25 mmol·L^−1, respectively). The solution was heated to 40° C. to completely dissolve the 6-dehydroabietylamide-N,N-dimethyl-hexylamine oxide, and then allowed to stand at room temperature, and the solution state was investigated.
It can be seen from the photograph of the appearance of a gel formed by 6-dehydroabietylamide-N,N-dimethyl-hexylamine oxide in FIG. 5 (concentrations from left to right were 4 mmol·L^−1, 10 mmol·L^−1, 15 mmol·L^−1, 20 mmol·L^−1, and 25 mmol·L^−1, respectively) that when the concentration of 6-dehydroabietylamide-N,N-dimethyl-hexylamine oxide was greater than 4 mmol·L^−1, the 6-dehydroabietylamide-N,N-dimethyl-hexylamine oxide can support its own weight without flowing after invertion, indicating the formed gel has excellent viscoelasticity.
In a hydrogel formed by 4 mmol·L^−1 of 6-dehydroabietylamide-N,N-dimethyl-hexylamine oxide, the critical gelling concentration of the 6-dehydroabietylamide-N,N-dimethyl-hexylamine oxide was only 0.176%. Upon conversion, on average, each gelling agent molecule can immobilize 13,889 water molecules, showing extremely high gelling efficiency.

L929 cells = assay: 3D cell incubation in hydrogel, FDA/PI staining; assay type: cell-based; details: 3D incubation in hydrogel, 24 h, 48 h and 96 h
Protocol: L929 cells were encapsulated in a 6-dehydroabietylamide-N,N-dimethyl-hexylamine oxide gel under sterile conditions for 3D cell incubation. The cell suspension was added into the 6-dehydroabietylamide-N,N-dimethyl-hexylamine oxide solution with a sol state, and a cell/hydrogel system was formed within 30 s, and further incubated at 37° C. for 15 min. Thereafter, 2 mL of RPMI-1640 medium containing 10% FBS fetal bovine serum and 1% penicillin/streptomycin was gently added to the incubation dish, and the cell/hydrogel system was incubated in a humidified atmosphere of 37° C. and 5% CO2. The medium was replaced after 1 h of incubation and then replaced every 12 h. After incubation for 24 h, 48 h and 96 h, the cell/hydrogel system was stained with FDA/PI and the cells were observed by a confocal laser scanning microscope. […] It can be seen that 6-dehydroabietylamide-N,N-dimethyl-hexylamine oxide hydrogel can be used as a 3D cell incubation scaffold and had potential application in cell therapy and tissue regeneration.

| stability of the gel emulsion after placing for one year ([2]; 0.22% of the mass of the continuous phase, disperse phase volume fraction 1%-98%) | release rate of Rhodamine B ([3]; in 40 h) | release rate of Rhodamine B ([3]; within 5 h) | stability of dodecane/hydrogel emulsion [4] | critical micelle concentration [5] | γcmc (surface tension at cmc) [5] | cross-sectional diameter of nanofiber [6] | length of nanofiber [6] | chiral aggregate structure of nanofiber (CD signal) [7] | water molecules immobilized per gelling agent molecule (on average) ([8]; at critical gelling concentration, upon conversion) | concentration at which gel supports its own weight without flowing after inversion ([8]; deionized water, dissolved at 40° C., stood at room temperature) | critical gelling concentration ([8]; in water, hydrogel formed by 4 mmol·L^−1, room temperature) | SMILES | gel formation [1] | viscosity of the system (steady-state shear) [1] | Stability ([2]; continuous phase 0.2, disperse phase 9.8) | Stability ([2]; continuous phase 3, disperse phase 7) | Stability ([2]; continuous phase 5, disperse phase 5) | Stability ([2]; continuous phase 7, disperse phase 3) | Stability ([2]; continuous phase 9.9, disperse phase 0.1) | viability and proliferation of L929 cells in the gel (L929 cells) |
| --- | --- | --- | --- | --- | --- | --- | --- | --- | --- | --- | --- | --- | --- | --- | --- | --- | --- | --- | --- | --- |
|  |  |  |  |  |  |  |  |  |  |  |  | CC(C)c1ccc2c(c1)CCC1C(C)(C(=O)NCC[N+](C)(C)[O-])CCCC21C (stereo not shown) [2-dehydroabietylamide-N,N-dimethyl-ethylamine oxide] | neither 2-dehydroabietylamide-N,N-dimethyl-ethylamine oxide nor 3-dehydroabietylamide-N,N-dimethyl-propylamine oxide could form a gel | comparable to the viscosity of water |  |  |  |  |  |  |
|  |  |  |  |  |  |  |  |  |  |  |  | CC(C)c1ccc2c(c1)CCC1C(C)(C(=O)NCCC[N+](C)(C)[O-])CCCC21C (stereo not shown) [3-dehydroabietylamide-N,N-dimethyl-propylamine oxide] | neither 2-dehydroabietylamide-N,N-dimethyl-ethylamine oxide nor 3-dehydroabietylamide-N,N-dimethyl-propylamine oxide could form a gel | comparable to the viscosity of water |  |  |  |  |  |  |
| did not undergo demulsification | 76% | 28% | no phase separation occurs | 0.56 mmol/L | 35 mN·m^−1 | about 10 nm | more than 2 μm | left-handed helix | 13,889 | greater than 4 mmol·L^−1 | 0.176% | CC(C)c1ccc2c(c1)CCC1C(C)(C(=O)NCCCCCC[N+](C)(C)[O-])CCCC21C (stereo not shown) [6-dehydroabietylamide-N,N-dimethyl-hexylamine oxide] |  |  | No demulsification occurs after incubation | No demulsification occurs after incubation | No demulsification occurs after incubation | No demulsification occurs after incubation | No demulsification occurs after incubation | higher viability and proliferative ability |
